Experimental data as given in ChEMBL document CHEMBL1201862, “PubChem BioAssay data set” (2004).
One block for each compound: values may come before it. Activity calls are given as the source filed them.

Legend:
[1] = molecular target: Peroxisome proliferator-activated receptor gamma/Nuclear receptor coactivator 1 (Homo sapiens, UniProt P37231); format: functional;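 also: agonist potency as compounds enhance coactivator SRC-1 recruitment to PPARgamma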
[2] = molecular target: Peroxisome proliferator-activated receptor gamma/Nuclear receptor coactivator 3 (Homo sapiens, UniProt P37231); format: functional;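 also: agonist potency for raising coactivator recruitment to the receptor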
Peroxisome proliferator-activated receptor gamma/Nuclear receptor coactivator 3, sequence (P37231 whole entry): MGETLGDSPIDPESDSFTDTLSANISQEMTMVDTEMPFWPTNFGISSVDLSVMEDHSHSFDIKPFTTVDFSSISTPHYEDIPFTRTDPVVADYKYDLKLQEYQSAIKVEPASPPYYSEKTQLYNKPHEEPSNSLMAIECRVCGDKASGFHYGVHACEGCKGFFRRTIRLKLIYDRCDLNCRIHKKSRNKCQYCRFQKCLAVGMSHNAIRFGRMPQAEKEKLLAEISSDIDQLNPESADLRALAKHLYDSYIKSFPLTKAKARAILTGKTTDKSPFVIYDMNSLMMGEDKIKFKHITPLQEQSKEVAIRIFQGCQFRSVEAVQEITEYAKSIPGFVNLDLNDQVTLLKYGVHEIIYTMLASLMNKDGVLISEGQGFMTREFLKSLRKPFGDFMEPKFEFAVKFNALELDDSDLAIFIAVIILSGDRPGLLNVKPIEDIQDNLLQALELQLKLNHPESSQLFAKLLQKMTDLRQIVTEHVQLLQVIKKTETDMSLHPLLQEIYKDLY
Peroxisome proliferator-activated receptor gamma/Nuclear receptor coactivator 3, sequence (Q9Y6Q9 whole entry, further chain): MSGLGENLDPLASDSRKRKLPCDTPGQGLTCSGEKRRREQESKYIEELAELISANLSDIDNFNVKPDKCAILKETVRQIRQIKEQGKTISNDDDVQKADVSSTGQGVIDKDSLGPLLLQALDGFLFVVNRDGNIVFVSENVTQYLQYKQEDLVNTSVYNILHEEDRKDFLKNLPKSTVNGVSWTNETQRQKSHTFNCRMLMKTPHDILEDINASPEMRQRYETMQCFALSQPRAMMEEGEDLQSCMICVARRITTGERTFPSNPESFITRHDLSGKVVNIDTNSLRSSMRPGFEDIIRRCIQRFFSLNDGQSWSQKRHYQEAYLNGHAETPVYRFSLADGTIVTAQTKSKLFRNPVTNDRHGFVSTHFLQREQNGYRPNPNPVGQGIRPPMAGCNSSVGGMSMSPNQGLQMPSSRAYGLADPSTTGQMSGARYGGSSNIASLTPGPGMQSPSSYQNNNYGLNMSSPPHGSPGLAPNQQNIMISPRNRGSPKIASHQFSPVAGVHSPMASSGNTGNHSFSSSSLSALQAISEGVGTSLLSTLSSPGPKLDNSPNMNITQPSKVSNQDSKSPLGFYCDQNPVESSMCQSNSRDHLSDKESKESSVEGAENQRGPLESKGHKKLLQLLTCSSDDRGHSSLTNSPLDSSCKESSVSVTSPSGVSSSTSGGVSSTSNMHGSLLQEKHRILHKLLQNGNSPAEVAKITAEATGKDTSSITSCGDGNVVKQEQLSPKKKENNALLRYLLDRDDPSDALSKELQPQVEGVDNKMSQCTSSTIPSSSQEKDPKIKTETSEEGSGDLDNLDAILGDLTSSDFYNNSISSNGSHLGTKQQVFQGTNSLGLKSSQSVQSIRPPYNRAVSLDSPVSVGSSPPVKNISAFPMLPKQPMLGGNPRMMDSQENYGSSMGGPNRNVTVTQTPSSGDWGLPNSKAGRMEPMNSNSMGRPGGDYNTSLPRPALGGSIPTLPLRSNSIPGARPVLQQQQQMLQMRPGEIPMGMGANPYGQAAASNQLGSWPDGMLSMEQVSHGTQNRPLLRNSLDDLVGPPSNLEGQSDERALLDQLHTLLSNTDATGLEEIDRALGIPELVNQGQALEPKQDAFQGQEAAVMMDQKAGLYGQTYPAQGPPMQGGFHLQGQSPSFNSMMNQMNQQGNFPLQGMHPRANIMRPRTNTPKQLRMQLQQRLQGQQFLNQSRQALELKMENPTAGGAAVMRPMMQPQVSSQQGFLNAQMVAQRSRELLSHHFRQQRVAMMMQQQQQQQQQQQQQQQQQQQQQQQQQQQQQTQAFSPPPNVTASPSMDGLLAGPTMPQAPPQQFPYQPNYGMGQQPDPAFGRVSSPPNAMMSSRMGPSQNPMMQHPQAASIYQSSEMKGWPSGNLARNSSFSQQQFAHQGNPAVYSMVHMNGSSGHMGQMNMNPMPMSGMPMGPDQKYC

[3] = molecular target: Peroxisome proliferator-activated receptor gamma/Nuclear receptor coactivator 2 (Homo sapiens, UniProt P37231); format: functional;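 also: agonist potency for raising coactivator recruitment to the receptor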
Bcl-2-like protein 10 = molecular target: T1, Bcl-2-like protein 10 (Homo sapiens, UniProt Q9HD36); assay: Concentration-response of Bcl-B inhibitors by biochemical FP with TR3 (AID 1243); format: functional
T1 sequence (Q9HD36 whole entry): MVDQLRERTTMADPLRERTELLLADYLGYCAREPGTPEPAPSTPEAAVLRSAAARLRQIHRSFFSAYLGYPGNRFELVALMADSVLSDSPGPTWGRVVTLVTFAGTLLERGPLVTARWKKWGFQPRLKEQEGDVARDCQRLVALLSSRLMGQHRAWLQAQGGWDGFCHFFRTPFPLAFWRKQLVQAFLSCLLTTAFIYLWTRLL

cells [4] = format: functional, cell-based
Protein Tat = Protein Tat (Human immunodeficiency virus type 1 group M subtype B (isolate HXB2)(HIV-1), UniProt P04608); format: functional;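 also: tat binding to TAR RNA read out by fluorescence polarization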
Protein Tat, sequence (P04608 whole entry): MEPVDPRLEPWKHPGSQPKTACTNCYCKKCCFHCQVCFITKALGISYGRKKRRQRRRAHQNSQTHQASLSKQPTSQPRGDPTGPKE

Vero = assay: viability of Vero cells under compound – cytotoxicity control for flavivirus capping enzyme inhibitors (AID 588742); format: functional; settings: Chlorocebus sabaeus
[5] = HIV-1 Vif–A3G interaction blockers – biochemical, TR-FRET, GST-Vif 1-94, biotin-A3G peptide, dose response retest, primary screen (AID 1117319); format: functional;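 also: TR-FRET signal of purified GST-Vif binding a biotinylated A3G peptide; inhibitors lower the FRET signal by blocking Vif and A3G binding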
cells [6] = format: functional, cell-based; remark: listed apart in the source
[7] = viability loss in THP-1 monocytes – THP-1 cells, cytotoxicity control for Vif-APOBEC3G degradation inhibitor project, dose response (AID 1117359); format: functional; settings: THP-1
Insulin-degrading enzyme = molecular target: T2, Insulin-degrading enzyme (Homo sapiens, UniProt P14735); assay: Dose Response: Fluorescence polarization-based cell-based high throughput dose response assay for inhibitors of insulin-degrading enzyme (IDE). [Related pubchem assays: 434962 (Primary screen (IDE inhibitors in singlicate)), 449730 (Counterscreen (Cytotoxicity in triplicate)), 435028 (Confirmation (IDE inhibitors in triplicate)), 434984 (Summary …; format: functional
T2 sequence (P14735 whole entry): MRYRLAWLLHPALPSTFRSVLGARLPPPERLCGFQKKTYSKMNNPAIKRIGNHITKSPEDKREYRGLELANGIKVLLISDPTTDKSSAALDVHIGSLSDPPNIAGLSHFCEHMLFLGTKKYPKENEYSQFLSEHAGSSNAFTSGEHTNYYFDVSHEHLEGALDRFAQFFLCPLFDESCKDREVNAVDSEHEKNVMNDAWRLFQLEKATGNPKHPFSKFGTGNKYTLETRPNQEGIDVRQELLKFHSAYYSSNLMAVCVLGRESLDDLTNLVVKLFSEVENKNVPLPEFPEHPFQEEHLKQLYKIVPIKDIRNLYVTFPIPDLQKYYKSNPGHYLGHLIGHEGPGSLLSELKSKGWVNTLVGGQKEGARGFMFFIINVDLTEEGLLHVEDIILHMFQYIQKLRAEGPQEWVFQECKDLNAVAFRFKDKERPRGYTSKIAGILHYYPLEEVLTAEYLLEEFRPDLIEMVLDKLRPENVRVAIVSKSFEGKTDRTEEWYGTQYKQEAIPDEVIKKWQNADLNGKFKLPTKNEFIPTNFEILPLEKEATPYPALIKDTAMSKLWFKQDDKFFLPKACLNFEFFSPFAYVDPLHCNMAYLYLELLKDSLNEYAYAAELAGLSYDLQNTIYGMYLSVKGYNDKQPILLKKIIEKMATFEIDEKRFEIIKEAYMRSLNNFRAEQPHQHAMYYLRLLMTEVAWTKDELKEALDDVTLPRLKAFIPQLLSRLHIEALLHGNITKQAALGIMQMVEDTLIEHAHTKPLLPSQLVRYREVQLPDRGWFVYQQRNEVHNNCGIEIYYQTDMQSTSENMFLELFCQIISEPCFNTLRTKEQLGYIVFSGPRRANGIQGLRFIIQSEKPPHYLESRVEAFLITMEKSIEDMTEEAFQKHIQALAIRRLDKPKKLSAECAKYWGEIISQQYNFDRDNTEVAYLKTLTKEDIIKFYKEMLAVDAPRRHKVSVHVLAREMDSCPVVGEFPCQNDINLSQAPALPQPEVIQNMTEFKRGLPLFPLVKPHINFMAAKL

[8] = Counterscreen for IDE inhibitors: Luminescence-based cell-based high throughput dose response assay to identify compounds that are cytotoxic to HEK cells. [Related pubchem assays: 434962 (Primary screen (IDE inhibitors in singlicate)), 449730 (Counterscreen (Cytotoxicity in triplicate)), 435028 (Confirmation (IDE inhibitors in triplicate)) …; format: functional; settings: HEK293
[9] = decrease of insulin promoter-GFP reporter – imaging, high-content screening, mouse beta cells (AID 1628); format: functional; settings: MIN6
Protein Wnt-3a = Protein Wnt-3a (Mus musculus, UniProt P27467); assay: antagonism of Wnt3a pathway luciferase reporter – Wnt-LIGHT cells, luminescence, selectivity assay for Gli-SUFU antagonist project, dose response (AID 651570); format: functional; settings: read-out: IC50_Mean;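 also: Wnt-LIGHT reporter cells stimulated with conditioned medium from Wnt3a-producing cells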
Protein Wnt-3a, sequence (P27467 whole entry): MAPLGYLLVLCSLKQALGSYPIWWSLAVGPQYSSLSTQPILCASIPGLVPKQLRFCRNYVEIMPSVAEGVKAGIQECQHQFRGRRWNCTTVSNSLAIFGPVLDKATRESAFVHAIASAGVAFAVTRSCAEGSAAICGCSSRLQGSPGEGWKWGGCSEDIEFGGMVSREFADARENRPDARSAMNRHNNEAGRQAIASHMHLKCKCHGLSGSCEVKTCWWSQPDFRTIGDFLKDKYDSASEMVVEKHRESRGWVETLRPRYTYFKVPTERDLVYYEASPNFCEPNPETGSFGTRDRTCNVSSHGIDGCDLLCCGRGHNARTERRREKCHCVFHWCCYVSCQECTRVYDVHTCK

[10] = MIN6 cell viability loss – mouse insulinoma, cytotoxicity control, dose response (AID 2122); format: functional;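 also: confirmatory high-throughput counterscreen run to flag cytotoxic compounds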
[11] = molecular target: T3, Neuropeptide Y receptor type 1 (Homo sapiens, UniProt P25929); assay: IC50 of human NPY-Y1 blockers – cell-based, dose response (AID 1277); format: functional
T3 sequence (P25929 whole entry): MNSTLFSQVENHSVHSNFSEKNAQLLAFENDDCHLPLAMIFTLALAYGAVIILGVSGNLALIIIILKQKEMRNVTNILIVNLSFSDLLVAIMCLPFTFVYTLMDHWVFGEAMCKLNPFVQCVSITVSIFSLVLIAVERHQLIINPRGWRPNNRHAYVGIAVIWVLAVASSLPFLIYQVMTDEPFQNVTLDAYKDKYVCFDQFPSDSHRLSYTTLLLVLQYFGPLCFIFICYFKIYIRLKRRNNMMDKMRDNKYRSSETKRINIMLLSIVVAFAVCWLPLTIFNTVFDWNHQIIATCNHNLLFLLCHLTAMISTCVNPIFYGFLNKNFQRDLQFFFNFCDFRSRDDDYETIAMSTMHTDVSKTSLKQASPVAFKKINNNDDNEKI

cells [12] = format: functional, cell-based; settings: HEK-CNG
[13] = molecular target: T4, Neuropeptide Y receptor type 2 (Homo sapiens, UniProt P49146); assay: IC50 for human NPY-Y2 blockade – cell-based, counter-screen for NPY-Y1 antagonist project, dose response (AID 1278); format: functional
T4 sequence (P49146 whole entry): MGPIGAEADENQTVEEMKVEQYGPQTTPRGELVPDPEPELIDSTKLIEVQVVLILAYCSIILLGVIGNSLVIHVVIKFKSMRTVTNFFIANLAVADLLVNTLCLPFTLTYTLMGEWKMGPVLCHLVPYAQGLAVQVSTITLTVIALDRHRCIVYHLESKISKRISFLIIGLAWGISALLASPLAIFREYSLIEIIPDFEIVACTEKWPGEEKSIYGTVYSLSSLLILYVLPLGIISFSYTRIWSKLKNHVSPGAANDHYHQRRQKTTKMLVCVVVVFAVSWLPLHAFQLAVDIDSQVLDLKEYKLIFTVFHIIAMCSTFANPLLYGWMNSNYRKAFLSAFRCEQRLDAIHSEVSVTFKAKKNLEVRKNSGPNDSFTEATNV

[14] = molecular target: T5, COUP transcription factor 2 (Homo sapiens, UniProt P24468); assay: Luminescence-based cell-based high throughput dose response assay to identify inhibitors of COUP-TFII (NR2F2).; format: functional;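 also: HEK293 cells transiently cotransfected with COUP-TFII expression vector and reporter; luciferase reporter luminescence driven by COUP-TFII from the pX2-168 reporter plasmid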
T5 sequence (P24468 whole entry): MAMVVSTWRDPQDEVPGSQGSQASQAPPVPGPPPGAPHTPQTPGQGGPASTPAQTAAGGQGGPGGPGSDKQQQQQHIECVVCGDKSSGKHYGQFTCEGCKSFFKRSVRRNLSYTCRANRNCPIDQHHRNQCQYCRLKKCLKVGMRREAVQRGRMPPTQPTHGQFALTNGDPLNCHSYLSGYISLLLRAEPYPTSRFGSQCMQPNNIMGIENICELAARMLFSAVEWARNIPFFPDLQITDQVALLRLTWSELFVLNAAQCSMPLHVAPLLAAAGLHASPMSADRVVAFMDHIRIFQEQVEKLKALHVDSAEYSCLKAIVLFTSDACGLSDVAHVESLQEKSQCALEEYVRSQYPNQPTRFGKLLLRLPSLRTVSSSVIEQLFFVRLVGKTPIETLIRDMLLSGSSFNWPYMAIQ

Galanin receptor type 3 = molecular target: T6, Galanin receptor type 3 (Homo sapiens, UniProt O60755); assay: Fluorescence-based cell-based primary high throughput dose response assay to identify antagonists of the Galanin Receptor 3 (GalR3).; format: functional
T6 sequence (O60755 whole entry): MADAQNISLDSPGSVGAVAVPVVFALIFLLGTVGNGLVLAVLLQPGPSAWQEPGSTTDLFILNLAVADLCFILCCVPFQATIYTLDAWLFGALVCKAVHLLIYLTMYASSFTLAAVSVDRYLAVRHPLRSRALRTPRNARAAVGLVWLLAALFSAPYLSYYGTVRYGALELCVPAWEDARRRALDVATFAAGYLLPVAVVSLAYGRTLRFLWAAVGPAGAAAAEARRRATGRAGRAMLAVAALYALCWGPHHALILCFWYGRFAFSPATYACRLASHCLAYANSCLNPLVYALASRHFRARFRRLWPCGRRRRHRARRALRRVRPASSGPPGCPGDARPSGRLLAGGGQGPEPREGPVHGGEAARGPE

INS1 = assay: INS-1E survival protection against cytokine death – cell-based, luminescence, retest, dose response (AID 449756); format: functional;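 also: cell death triggered by IL-1 beta plus TNF-alpha plus IFN-gamma mixture; protective hits raise ATP signal compared with cytokine alone wells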

Peroxisome proliferator-activated receptor gamma/Nuclear receptor coactivator 1, sequence (P37231 whole entry): as the sequence (P37231 whole entry) above
Peroxisome proliferator-activated receptor gamma/Nuclear receptor coactivator 1, sequence (Q15788 whole entry, further chain): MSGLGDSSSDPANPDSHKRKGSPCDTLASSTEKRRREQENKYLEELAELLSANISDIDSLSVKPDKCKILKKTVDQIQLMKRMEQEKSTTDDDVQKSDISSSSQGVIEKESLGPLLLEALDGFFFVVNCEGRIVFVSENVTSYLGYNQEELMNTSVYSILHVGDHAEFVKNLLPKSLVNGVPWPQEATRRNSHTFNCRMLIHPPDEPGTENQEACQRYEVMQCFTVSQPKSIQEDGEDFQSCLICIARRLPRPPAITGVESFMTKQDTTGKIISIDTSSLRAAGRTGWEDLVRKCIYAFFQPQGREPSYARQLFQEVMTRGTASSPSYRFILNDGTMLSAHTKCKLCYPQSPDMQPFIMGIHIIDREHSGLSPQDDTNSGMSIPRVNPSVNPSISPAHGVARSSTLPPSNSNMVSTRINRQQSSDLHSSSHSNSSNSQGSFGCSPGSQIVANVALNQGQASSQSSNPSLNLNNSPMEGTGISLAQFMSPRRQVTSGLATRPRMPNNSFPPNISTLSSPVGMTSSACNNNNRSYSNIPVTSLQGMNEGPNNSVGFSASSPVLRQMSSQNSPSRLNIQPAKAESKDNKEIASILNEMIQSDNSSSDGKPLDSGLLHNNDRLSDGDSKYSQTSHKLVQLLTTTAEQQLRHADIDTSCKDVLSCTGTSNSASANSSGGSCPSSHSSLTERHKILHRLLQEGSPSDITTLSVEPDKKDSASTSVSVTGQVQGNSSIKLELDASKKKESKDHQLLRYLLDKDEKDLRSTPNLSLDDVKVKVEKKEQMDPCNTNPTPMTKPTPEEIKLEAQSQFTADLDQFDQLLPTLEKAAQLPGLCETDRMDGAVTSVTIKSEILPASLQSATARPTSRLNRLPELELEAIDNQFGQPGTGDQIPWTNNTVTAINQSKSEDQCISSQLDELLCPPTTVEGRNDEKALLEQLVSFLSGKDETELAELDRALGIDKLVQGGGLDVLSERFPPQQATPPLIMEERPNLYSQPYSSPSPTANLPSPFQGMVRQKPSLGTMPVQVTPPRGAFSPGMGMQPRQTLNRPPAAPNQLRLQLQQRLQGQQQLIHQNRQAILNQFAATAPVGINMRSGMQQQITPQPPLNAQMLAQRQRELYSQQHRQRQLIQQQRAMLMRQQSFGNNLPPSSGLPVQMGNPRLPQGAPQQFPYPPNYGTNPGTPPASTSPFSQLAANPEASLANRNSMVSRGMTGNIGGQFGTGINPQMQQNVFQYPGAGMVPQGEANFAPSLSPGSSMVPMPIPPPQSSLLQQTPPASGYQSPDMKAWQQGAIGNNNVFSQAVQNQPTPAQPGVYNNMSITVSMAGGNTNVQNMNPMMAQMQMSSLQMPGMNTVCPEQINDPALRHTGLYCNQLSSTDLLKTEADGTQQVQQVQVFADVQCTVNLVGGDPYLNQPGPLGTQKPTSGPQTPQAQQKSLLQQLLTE

EC50 [1]: > 79.4 µM (not active)
EC50 [2]: > 79.4 µM (not active)
EC50 [3]: > 79.4 µM (not active)
Compound: CC(C)(C)c1ccc(OCc2ccc(C(=O)N3CCOCC3)o2)cc1

Compound: Oc1cccc(/C=N/c2c(-c3ccco3)nc3ccccn23)c1
EC50 (Bcl-2-like protein 10): 9.07 µM (active)
EC50 (cells [4]): > 350 µM (not active)
IC50 (Protein Tat): 53.3 µM (inconclusive)
CC50 (Vero): > 40 µM (active)
IC50 [5]: > 66.8 µM (active)
EC50 (cells [6]): 66.5 µM (active)
CC50 [7]: > 40 µM (active)

Compound: Cc1ccc(/C=N\NC(=O)/C(=C\Nc2nccc(C)n2)NC(=O)c2ccccc2)cc1
IC50 (Insulin-degrading enzyme): 5.43 µM (active)
IC50 [8]: > 55.7 µM (not active)

Compound: COc1ccccc1-n1c(-c2ccccc2)c[n+]2c1CCc1ccccc1-2
IC50 [9]: 0.548 µM (active)
IC50 (Protein Wnt-3a): 6.31 µM (active)
IC50 [10]: 0.266 µM (active)
IC50 [11]: 8.77 µM (active)
EC50 (cells [12]): > 29.9 µM (inactive)
IC50 [13]: 11.6 µM (not active)
IC50 [14]: 6.73 µM (active)
IC50 (Galanin receptor type 3): > 1.11 µM (active)
AC50 (INS1; Rattus norvegicus, INS1): 2.31 µM (active)
AC50 (INS1; ins1): 3.62 µM (active)
